pEC50: −log10 of the molar value. Where a name gives a salt, the structure may show the parent alone.
tested on: primary neurons; assay: CellTiter-Glo luminescence-based ATP assay; format: cell-based, mouse; conditions: ATP orthogonal screen, 24 h
Summary of the method: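 Primary neurons treated from DIV13 for 24 h with compound or DMSO. After part of the medium was removed, CellTiter-Glo reagent was added; plates were shaken 10 min at 200 rpm, kept 2 min in the dark at room temperature, and luminescence read as total ATP.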

| Compound | ATP [Z-scores] |
| --- | --- |
| CCc1nc(N)nc(N)c1-c1ccc(Cl)cc1 [pyrimethamine] | 6.54 |
| C=C[C@H]1CN2CC[C@H]1C[C@H]2[C@H](OC(=O)OCC)c1ccnc2ccc(OC)cc12 [quinine ethyl carbonate] | 3.60 |
| COC(=O)[C@H]1[C@H]2C[C@H]3c4[nH]c5ccccc5c4CCN3C[C@H]2CC[C@@H]1O [rauwolscine hydrochloride] | 8.40 |
| COC(=O)[C@H]1[C@H]2C[C@@H]3c4[nH]c5cc(OC)ccc5c4CCN3C[C@H]2C[C@@H](OC(=O)c2cc(OC)c(OC)c(OC)c2)[C@@H]1OC [reserpine] | 5.29 |
| Cc1nc2sccn2c(=O)c1CCN1CCC(=C(c2ccc(F)cc2)c2ccc(F)cc2)CC1 [ritanserin] | 4.40 |
| C=C[C@](C)(O)CC[C@@H]1[C@@]2(C)CCCC(C)(C)[C@@H]2CC[C@@]1(C)O [sclareol] | 4.64 |
| CN[C@H]1CC[C@@H](c2ccc(Cl)c(Cl)c2)c2ccccc21 [sertraline hydrochloride] | 4.82 |
| C1CCN2C[C@@H]3C[C@@H](CN4CCCC[C@@H]34)[C@H]2C1 [sparteine sulfate] | 2.92 |
| COc1ccc(-n2nc(CCC(=O)N(C)O)cc2-c2ccc(Cl)cc2)cc1 [tepoxalin] | 6.89 |
| CC(C)N1CCN(c2ccc(OCC3COC(Cn4cncn4)(c4ccc(Cl)cc4Cl)O3)cc2)CC1 (centres unmarked) [terconazole] | 2.82 |
| CN1CCN(CC/C=C2/c3ccccc3Sc3ccc(S(=O)(=O)N(C)C)cc32)CC1 [thiothixene] | 3.80 |
| COc1ccc(CN(CCN(C)C)c2ncccn2)cc1 [thonzylamine hydrochloride] | 5.17 |
| CN(C)c1cc(NC(=O)CNC(C)(C)C)c(O)c2c1C[C@H]1C[C@H]3[C@H](N(C)C)C(O)=C(C(N)=O)C(=O)[C@@]3(O)C(O)=C1C2=O [tigecycline] | 4.97 |
| CCNC1(c2cccs2)CCCCC1=O.Cl (centres unmarked) [tiletamine hydrochloride] | 6.27 |
| Cc1ccc(C(=O)C(C)CN2CCCCC2)cc1 (centres unmarked) [tolperisone hydrochloride] | 5.49 |
| CN(C)CCOc1ccc(/C(=C(/CCCl)c2ccccc2)c2ccccc2)cc1 [toremifene citrate] | 3.29 |
| CSc1nc2cc(Cl)c(Oc3cccc(Cl)c3Cl)cc2[nH]1 [triclabendazole] | 3.97 |
| OC(CCN1CCCCC1)(c1ccccc1)C1CCCCC1 (centres unmarked) [trihexyphenidyl hydrochloride] | 5.95 |
| CC(CN(C)C)CN1c2ccccc2CCc2ccccc21 (centres unmarked) [trimipramine maleate] | 5.24 |
| CCOC(=O)C1=C[C@]2(CC)CCCN3CCc4c(n1c1ccccc41)[C@@H]32 [vinpocetine] | 6.29 |
| acetophenazine maleate | 5.65 |
| butacaine sulfate | 6.99 |
| carvedilol phosphate | 6.87 |
| colistin sulfate | 5.48 |
| pizotyline malate | 7.13 |
| trimebutine maleate | 6.14 |
| trimeprazine tartrate | 5.75 |

same assay, conditions: Mus musculus, Primary neuron; dose response, 15 concentrations from 6 nM to 100 uM

| Compound | pEC50 |
| --- | --- |
| COC(=O)[C@H]1[C@H]2C[C@H]3c4[nH]c5ccccc5c4CCN3C[C@H]2CC[C@@H]1O [rauwolscine hydrochloride] | 6.00 |
| COC(=O)[C@H]1[C@H]2C[C@@H]3c4[nH]c5cc(OC)ccc5c4CCN3C[C@H]2C[C@@H](OC(=O)c2cc(OC)c(OC)c(OC)c2)[C@@H]1OC [reserpine] | 6.92 |
| OC(CCN1CCCCC1)(c1ccccc1)C1CCCCC1 (centres unmarked) [trihexyphenidyl hydrochloride] | 6.77 |
| CC(CN(C)C)CN1c2ccccc2CCc2ccccc21 (centres unmarked) [trimipramine maleate] | 6.74 |

same assay, conditions: Mus musculus, Primary neuron; maximal percent increase relative to in-plate DMSO controls, dose response; read-out: ATP (Effect-size)

| Compound | Emax [%] |
| --- | --- |
| COC(=O)[C@H]1[C@H]2C[C@H]3c4[nH]c5ccccc5c4CCN3C[C@H]2CC[C@@H]1O [rauwolscine hydrochloride] | 20.9 |
| COC(=O)[C@H]1[C@H]2C[C@@H]3c4[nH]c5cc(OC)ccc5c4CCN3C[C@H]2C[C@@H](OC(=O)c2cc(OC)c(OC)c(OC)c2)[C@@H]1OC [reserpine] | 20.5 |
| OC(CCN1CCCCC1)(c1ccccc1)C1CCCCC1 (centres unmarked) [trihexyphenidyl hydrochloride] | 17.8 |
| CC(CN(C)C)CN1c2ccccc2CCc2ccccc21 (centres unmarked) [trimipramine maleate] | 16.4 |

same assay, conditions: dose response, 15 concentrations from 6 nM to 100 uM

| Compound | pEC50 |
| --- | --- |
| acetophenazine maleate | 6.52 |
| pizotyline malate | 6.44 |

same assay, conditions: maximal percent increase relative to in-plate DMSO controls, dose response

| Compound | ATP (Effect-size) [%] |
| --- | --- |
| acetophenazine maleate | 16.7 |
| pizotyline malate | 17.9 |

tested on: primary neurons; assay: TMRM fluorescence assay of inner mitochondrial membrane potential (ΔΨm); conditions: 12.5 μM, 4 h

| Compound | hit in TMRM primary screen when assayed at 4 h |
| --- | --- |
| CCc1nc(N)nc(N)c1-c1ccc(Cl)cc1 [pyrimethamine] | pyrimethamine* |
| trimebutine maleate | trimebutine maleate* |

same assay, conditions: Mus musculus, Primary neuron, read-out: TMRM (Effect-size)

| Compound | Emax [%] |
| --- | --- |
| COC(=O)[C@H]1[C@H]2C[C@H]3c4[nH]c5ccccc5c4CCN3C[C@H]2CC[C@@H]1O [rauwolscine hydrochloride] | 29.4 |
| COC(=O)[C@H]1[C@H]2C[C@@H]3c4[nH]c5cc(OC)ccc5c4CCN3C[C@H]2C[C@@H](OC(=O)c2cc(OC)c(OC)c(OC)c2)[C@@H]1OC [reserpine] | 22.5 |
| OC(CCN1CCCCC1)(c1ccccc1)C1CCCCC1 (centres unmarked) [trihexyphenidyl hydrochloride] | 20 |
| CC(CN(C)C)CN1c2ccccc2CCc2ccccc21 (centres unmarked) [trimipramine maleate] | 20 |

same assay, conditions: Mus musculus, Primary neuron, read-out: TMRM-EC50

| Compound | pEC50 |
| --- | --- |
| COC(=O)[C@H]1[C@H]2C[C@H]3c4[nH]c5ccccc5c4CCN3C[C@H]2CC[C@@H]1O [rauwolscine hydrochloride] | 5.34 |
| COC(=O)[C@H]1[C@H]2C[C@@H]3c4[nH]c5cc(OC)ccc5c4CCN3C[C@H]2C[C@@H](OC(=O)c2cc(OC)c(OC)c(OC)c2)[C@@H]1OC [reserpine] | 6.19 |
| OC(CCN1CCCCC1)(c1ccccc1)C1CCCCC1 (centres unmarked) [trihexyphenidyl hydrochloride] | 5.49 |
| CC(CN(C)C)CN1c2ccccc2CCc2ccccc21 (centres unmarked) [trimipramine maleate] | 6.44 |

same assay, conditions: maximal percent increase relative to in-plate DMSO controls, dose response

| Compound | TMRM (Effect-size) [%] |
| --- | --- |
| acetophenazine maleate | 17.5 |
| pizotyline malate | 25.2 |

same assay, conditions: primary screen, 12.5 μM, 24 h

| Compound | TMRM Primary [Z-scores] |
| --- | --- |
| CCc1nc(N)nc(N)c1-c1ccc(Cl)cc1 [pyrimethamine] | 3.43 |
| C=C[C@H]1CN2CC[C@H]1C[C@H]2[C@H](OC(=O)OCC)c1ccnc2ccc(OC)cc12 [quinine ethyl carbonate] | 4.64 |
| COC(=O)[C@H]1[C@H]2C[C@H]3c4[nH]c5ccccc5c4CCN3C[C@H]2CC[C@@H]1O [rauwolscine hydrochloride] | 4.30 |
| COC(=O)[C@H]1[C@H]2C[C@@H]3c4[nH]c5cc(OC)ccc5c4CCN3C[C@H]2C[C@@H](OC(=O)c2cc(OC)c(OC)c(OC)c2)[C@@H]1OC [reserpine] | 7.44 |
| Cc1nc2sccn2c(=O)c1CCN1CCC(=C(c2ccc(F)cc2)c2ccc(F)cc2)CC1 [ritanserin] | 5.25 |
| C=C[C@](C)(O)CC[C@@H]1[C@@]2(C)CCCC(C)(C)[C@@H]2CC[C@@]1(C)O [sclareol] | 2.80 |
| CN[C@H]1CC[C@@H](c2ccc(Cl)c(Cl)c2)c2ccccc21 [sertraline hydrochloride] | 3.42 |
| C1CCN2C[C@@H]3C[C@@H](CN4CCCC[C@@H]34)[C@H]2C1 [sparteine sulfate] | 2.65 |
| COc1ccc(-n2nc(CCC(=O)N(C)O)cc2-c2ccc(Cl)cc2)cc1 [tepoxalin] | 4.36 |
| CC(C)N1CCN(c2ccc(OCC3COC(Cn4cncn4)(c4ccc(Cl)cc4Cl)O3)cc2)CC1 (centres unmarked) [terconazole] | 5.15 |
| CN1CCN(CC/C=C2/c3ccccc3Sc3ccc(S(=O)(=O)N(C)C)cc32)CC1 [thiothixene] | 3.08 |
| COc1ccc(CN(CCN(C)C)c2ncccn2)cc1 [thonzylamine hydrochloride] | 3.16 |
| CN(C)c1cc(NC(=O)CNC(C)(C)C)c(O)c2c1C[C@H]1C[C@H]3[C@H](N(C)C)C(O)=C(C(N)=O)C(=O)[C@@]3(O)C(O)=C1C2=O [tigecycline] | 3.91 |
| CCNC1(c2cccs2)CCCCC1=O.Cl (centres unmarked) [tiletamine hydrochloride] | 3.31 |
| Cc1ccc(C(=O)C(C)CN2CCCCC2)cc1 (centres unmarked) [tolperisone hydrochloride] | 3.57 |
| CN(C)CCOc1ccc(/C(=C(/CCCl)c2ccccc2)c2ccccc2)cc1 [toremifene citrate] | 3.31 |
| CSc1nc2cc(Cl)c(Oc3cccc(Cl)c3Cl)cc2[nH]1 [triclabendazole] | 3.30 |
| OC(CCN1CCCCC1)(c1ccccc1)C1CCCCC1 (centres unmarked) [trihexyphenidyl hydrochloride] | 6.07 |
| CC(CN(C)C)CN1c2ccccc2CCc2ccccc21 (centres unmarked) [trimipramine maleate] | 5.18 |
| CCOC(=O)C1=C[C@]2(CC)CCCN3CCc4c(n1c1ccccc41)[C@@H]32 [vinpocetine] | 5.76 |
| acetophenazine maleate | 5.64 |
| butacaine sulfate | 3.85 |
| carvedilol phosphate | 5.81 |
| colistin sulfate | 3.27 |
| pizotyline malate | 3.21 |
| trimebutine maleate | 3.79 |
| trimeprazine tartrate | 3.13 |

same assay, conditions: read-out: TMRM-EC50; dose response, 15 concentrations from 6 nM to 100 uM

| Compound | pEC50 |
| --- | --- |
| acetophenazine maleate | 5.94 |
| pizotyline malate | 5.59 |

same assay, conditions: rescreen, 24 h

| Compound | TMRM Rescreen [Z-scores] |
| --- | --- |
| CCc1nc(N)nc(N)c1-c1ccc(Cl)cc1 [pyrimethamine] | 4.00 |
| C=C[C@H]1CN2CC[C@H]1C[C@H]2[C@H](OC(=O)OCC)c1ccnc2ccc(OC)cc12 [quinine ethyl carbonate] | 6.26 |
| COC(=O)[C@H]1[C@H]2C[C@H]3c4[nH]c5ccccc5c4CCN3C[C@H]2CC[C@@H]1O [rauwolscine hydrochloride] | 8.77 |
| COC(=O)[C@H]1[C@H]2C[C@@H]3c4[nH]c5cc(OC)ccc5c4CCN3C[C@H]2C[C@@H](OC(=O)c2cc(OC)c(OC)c(OC)c2)[C@@H]1OC [reserpine] | 7.89 |
| Cc1nc2sccn2c(=O)c1CCN1CCC(=C(c2ccc(F)cc2)c2ccc(F)cc2)CC1 [ritanserin] | 5.83 |
| C=C[C@](C)(O)CC[C@@H]1[C@@]2(C)CCCC(C)(C)[C@@H]2CC[C@@]1(C)O [sclareol] | 5.41 |
| CN[C@H]1CC[C@@H](c2ccc(Cl)c(Cl)c2)c2ccccc21 [sertraline hydrochloride] | 4.15 |
| C1CCN2C[C@@H]3C[C@@H](CN4CCCC[C@@H]34)[C@H]2C1 [sparteine sulfate] | 1.95 |
| COc1ccc(-n2nc(CCC(=O)N(C)O)cc2-c2ccc(Cl)cc2)cc1 [tepoxalin] | 3.75 |
| CC(C)N1CCN(c2ccc(OCC3COC(Cn4cncn4)(c4ccc(Cl)cc4Cl)O3)cc2)CC1 (centres unmarked) [terconazole] | 5.95 |
| CN1CCN(CC/C=C2/c3ccccc3Sc3ccc(S(=O)(=O)N(C)C)cc32)CC1 [thiothixene] | 3.38 |
| COc1ccc(CN(CCN(C)C)c2ncccn2)cc1 [thonzylamine hydrochloride] | 3.21 |
| CN(C)c1cc(NC(=O)CNC(C)(C)C)c(O)c2c1C[C@H]1C[C@H]3[C@H](N(C)C)C(O)=C(C(N)=O)C(=O)[C@@]3(O)C(O)=C1C2=O [tigecycline] | 5.95 |
| CCNC1(c2cccs2)CCCCC1=O.Cl (centres unmarked) [tiletamine hydrochloride] | 4.20 |
| Cc1ccc(C(=O)C(C)CN2CCCCC2)cc1 (centres unmarked) [tolperisone hydrochloride] | 3.67 |
| CN(C)CCOc1ccc(/C(=C(/CCCl)c2ccccc2)c2ccccc2)cc1 [toremifene citrate] | 7.05 |
| CSc1nc2cc(Cl)c(Oc3cccc(Cl)c3Cl)cc2[nH]1 [triclabendazole] | 3.61 |
| OC(CCN1CCCCC1)(c1ccccc1)C1CCCCC1 (centres unmarked) [trihexyphenidyl hydrochloride] | 7.08 |
| CC(CN(C)C)CN1c2ccccc2CCc2ccccc21 (centres unmarked) [trimipramine maleate] | 5.16 |
| CCOC(=O)C1=C[C@]2(CC)CCCN3CCc4c(n1c1ccccc41)[C@@H]32 [vinpocetine] | 6.16 |
| acetophenazine maleate | 5.34 |
| butacaine sulfate | 5.06 |
| carvedilol phosphate | 5.43 |
| colistin sulfate | 5.24 |
| pizotyline malate | 5.84 |
| trimebutine maleate | 5.82 |
| trimeprazine tartrate | 3.94 |

From patent US20230003721A1, “MITOTHERAPEUTICS FOR THE TREATMENT OF BRAIN DISORDERS” (The University of Florida Research Foundation, Inc., priority 2019, published 2023)
